Test results reported in patent US11427567B2, “Imidazolyl pyrimidinylamine compounds as CDK2 inhibitors” (Incyte Corporation, priority 2019, dated 2022).
pIC50: −log10 of the molar value.

What follows are molecules tested against CDK2/Cyclin E1 (Homo sapiens (Human), UniProt P24941) (assay: CDK2/Cyclin E1 HTRF enzyme activity assay (Example A)). Settings: 1 mM ATP.
Assay type: biochemical
Method: Assays were conducted in white 384-well polystyrene plates in a final reaction volume of 8 μL. […] HTRF signals were read after 1 hour at room temperature on a PHERAstar FS plate reader (BMG Labtech). Data was analyzed with IDBS XLFit and GraphPad Prism 5.0 software using a three or four parameter dose response curve to determine IC50 for each compound.

Question: How did the pIC50 turn out when `CCN1CCN(c2nccc(-n3cnc(-c4nc(NC5CCN(S(C)(=O)=O)CC5)ncc4C(F)(F)F)c3)c2Cl)CC1` [Example 318, 4-(1-(3-Chloro-2-(4-ethylpiperazin-1-yl)pyridin-4-yl)-1H-imidazol-4-yl)-N-(1-(methylsulfonyl)piperidin-4-yl)-5-(trifluoromethyl)pyrimidin-2-amine] was run?
Answer: Its pIC50 is at least 7.30.

Question: How did the pIC50 turn out when `CN1CCN(c2nccc(-n3cnc(-c4nc(NC5CCN(S(C)(=O)=O)CC5)ncc4C(F)(F)F)c3)c2Cl)CC1` [Example 319, 4-(1-(3-Chloro-2-(4-methylpiperazin-1-yl)pyridin-4-yl)-1H-imidazol-4-yl)-N-(1-(methylsulfonyl)piperidin-4-yl)-5-(trifluoromethyl)pyrimidin-2-amine] was run?
Answer: The pIC50 was at least 7.30.

Question: How did the pIC50 turn out when `CS(=O)(=O)N1CCC(Nc2ncc(C(F)(F)F)c(-c3cn(-c4ccnc(N5CCOCC5)c4Cl)cn3)n2)CC1` [Example 320] was run?
Answer: Its pIC50 is at least 7.30.

Question: `CN(C)c1nccc(-n2cnc(-c3nc(NC4CCN(S(C)(=O)=O)CC4)ncc3C(F)(F)F)c2)c1Cl` [Example 321, 4-(1-(3-Chloro-2-(dimethylamino)pyridin-4-yl)-1H-imidazol-4-yl)-N-(1-(methylsulfonyl)piperidin-4-yl)-5-(trifluoromethyl)pyrimidin-2-amine] was tested. Which pIC50 did it give?
Answer: Its pIC50 is at least 7.30.

Question: With `CNc1nccc(-n2cnc(-c3nc(NC4CCN(S(C)(=O)=O)CC4)ncc3C(F)(F)F)c2)c1Cl` [Example 322, 4-(1-(3-Chloro-2-(methylamino)pyridin-4-yl)-1H-imidazol-4-yl)-N-(1-(methylsulfonyl)piperidin-4-yl)-5-(trifluoromethyl)pyrimidin-2-amine] as the molecule, how does the pIC50 read?
Answer: Its pIC50 is at least 7.30.

Question: How did the pIC50 turn out when `CC(C)(O)Cn1cnc(-c2nc(N[C@H]3CCN(S(=O)(=O)C4CC4)C[C@H]3F)ncc2C(F)(F)F)c1` [Example 323, 1-(4-(2-(((3R,4S)-1-(Cyclopropylsulfonyl)-3-fluoropiperidin-4-yl)amino)-5-(trifluoromethyl)pyrimidin-4-yl)-1H-imidazol-1-yl)-2-methylpropan-2-ol] was run?
Answer: The pIC50 was at least 7.30.

Question: With `CCS(=O)(=O)N1CCC(Nc2ncc(C(F)(F)F)c(-c3cn(CC(C)(C)O)cn3)n2)CC1` [Example 324, 1-(4-(2-((1-(Ethylsulfonyl)piperidin-4-yl)amino)-5-(trifluoromethyl)pyrimidin-4-yl)-1H-imidazol-1-yl)-2-methylpropan-2-ol] as the molecule, how does the pIC50 read?
Answer: The pIC50 was at least 7.30.

Question: With `CC(C)(O)Cn1cnc(-c2nc(N[C@H]3CCN(S(C)(=O)=O)C[C@H]3F)ncc2C(F)(F)F)c1` [Example 325, 1-(4-(2-(((3R,4S)-3-Fluoro-1-(methylsulfonyl)piperidin-4-yl)amino)-5-(trifluoromethyl)pyrimidin-4-yl)-1H-imidazol-1-yl)-2-methylpropan-2-ol] as the molecule, how does the pIC50 read?
Answer: The pIC50 was at least 7.30.

Question: `CC(C)(O)Cn1cnc(-c2nc(N[C@@H]3CCN(S(C)(=O)=O)C[C@H]3F)ncc2C(F)(F)F)c1` [Example 326, 1-(4-(2-(((3R,4R)-3-Fluoro-1-(methylsulfonyl)piperidin-4-yl)amino)-5-(trifluoromethyl)pyrimidin-4-yl)-1H-imidazol-1-yl)-2-methylpropan-2-ol] was tested. Which pIC50 did it give?
Answer: The pIC50 was at least 7.30.

Question: With `C[C@@H]1CN(S(C)(=O)=O)CC[C@@H]1Nc1ncc(C(F)(F)F)c(-c2cn(CC(C)(C)O)cn2)n1` [Example 327, 2-Methyl-1-(4-(2-(((3R,4S)-3-methyl-1-(methylsulfonyl)piperidin-4-yl)amino)-5-(trifluoromethyl)pyrimidin-4-yl)-1H-imidazol-1-yl)propan-2-ol] as the molecule, how does the pIC50 read?
Answer: The pIC50 was at least 7.30.

Question: How did the pIC50 turn out when `CCS(=O)(=O)N1CCC(Nc2ncc(C(F)(F)F)c(-c3cn(CC(F)F)cn3)n2)CC1` [Example 328, 4-(1-(2,2-Difluoroethyl)-1H-imidazol-4-yl)-N-(1-(ethylsulfonyl)piperidin-4-yl)-5-(trifluoromethyl)pyrimidin-2-amine] was run?
Answer: The pIC50 was at least 7.30.

Question: With `O=S(=O)(C1CC1)N1CC[C@H](Nc2ncc(C(F)(F)F)c(-c3cn(CC(F)F)cn3)n2)[C@H](F)C1` [Example 329, N-((3R,4S)-1-(Cyclopropylsulfonyl)-3-fluoropiperidin-4-yl)-4-(1-(2,2-difluoroethyl)-1H-imidazol-4-yl)-5-(trifluoromethyl)pyrimidin-2-amine] as the molecule, how does the pIC50 read?
Answer: The pIC50 was at least 7.30.
